Calls of active or inactive are those of the source. The calls are words filed in the database; no cut-off is given here.
Legend:
Substance-K receptor [1] = target: T1, Substance-K receptor (Homo sapiens, UniProt P21452); test: Displacement of [3H]neurokinin A from human NK2 receptor
T1 sequence (P21452 whole entry): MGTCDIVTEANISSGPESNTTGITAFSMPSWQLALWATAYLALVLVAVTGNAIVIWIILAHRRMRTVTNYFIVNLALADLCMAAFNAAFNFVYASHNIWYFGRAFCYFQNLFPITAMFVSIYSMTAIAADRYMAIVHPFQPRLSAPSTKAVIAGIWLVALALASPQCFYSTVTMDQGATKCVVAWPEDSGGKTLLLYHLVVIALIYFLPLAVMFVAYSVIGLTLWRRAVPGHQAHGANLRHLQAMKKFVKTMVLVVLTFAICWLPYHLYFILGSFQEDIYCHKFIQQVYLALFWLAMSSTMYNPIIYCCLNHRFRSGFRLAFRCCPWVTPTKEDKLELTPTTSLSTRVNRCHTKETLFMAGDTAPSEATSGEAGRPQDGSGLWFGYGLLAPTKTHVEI

[2] = target: T2, Substance-K receptor (Cavia porcellus) (UniProt Q64077); test: Antagonist activity at NK2 receptor in Dunkin-Hartley guinea pig colon smooth muscle assessed as inhibition of [beta-Ala8]NKA(4-10)-induced tissue contraction in presence of NK1 receptor antagonist SR-140333; type: functional, tissue-based
T2 sequence (whole entry): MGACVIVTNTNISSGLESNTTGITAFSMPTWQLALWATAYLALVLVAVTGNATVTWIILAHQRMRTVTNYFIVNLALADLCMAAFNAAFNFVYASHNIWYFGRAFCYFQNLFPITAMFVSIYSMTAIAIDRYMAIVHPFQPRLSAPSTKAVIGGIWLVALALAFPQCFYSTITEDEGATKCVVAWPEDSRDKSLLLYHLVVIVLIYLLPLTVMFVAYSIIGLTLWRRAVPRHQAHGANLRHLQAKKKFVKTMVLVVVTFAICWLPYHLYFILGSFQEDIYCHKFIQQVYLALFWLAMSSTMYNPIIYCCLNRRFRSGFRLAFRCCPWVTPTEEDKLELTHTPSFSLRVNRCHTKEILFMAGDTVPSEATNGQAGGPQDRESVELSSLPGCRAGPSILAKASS

[3] = Apparent permeability from apical to basolateral side of human Caco-2 cells at 100 uM
Cavia porcellus = test: Inhibition of [beta-Ala8]NKA(4-10)-induced colonic contractions in Dunkin-Hartley guinea pig at 3 umol/kg, iv after 4 hrs relative to control; type: functional
Substance-K receptor [4] = target: T1, Substance-K receptor; test: Antagonist activity at NK2 receptor in human urinary bladder assessed as inhibition of [beta-Ala8]NKA(4-10)-induced tissue contractions; type: functional; conditions: read-out: pA2 (converted)
Homo sapiens = test: Inhibition of [beta-Ala8]NKA(4-10)-induced colonic contractions […] at 10 umol/kg, id relative to control; type: functional, organism-based

Row | SMILES | Ki (Substance-K receptor [1]) | pKb [2] | Papp A→B at 100 µM [3] | Imax (Cavia porcellus) | Kb (Substance-K receptor [4]) | Activity (Homo sapiens)
1 | O=C(NC1(C(=O)N[C@@H](CCCN2CCN(CC3CCOCC3)CC2)Cc2ccccc2)CCCC1)c1cc2cc(Cl)ccc2o1 | 251 pM | 7.6 | 13.7 ×10⁻⁶ cm/s | 100% |  | 
2 | Cc1ccc2cc(C(=O)NC3(C(=O)N[C@@H](CCCN4CCN(CC5CCOCC5)CC4)Cc4ccccc4)CCCC3)sc2c1 |  | 8.6 | 11.2 ×10⁻⁶ cm/s | 100% | 200 pM | Active
